From publication PMC4578436, “Synthesis and evaluation of the biostability and cell compatibility of novel conjugates of nucleobase, peptidic epitope, and saccharide” (Beilstein Journal of Organic Chemistry, 2015)
Where a SMILES comes first, the peptide text is derived from it. The star is where a group is joined. Adenin9ylacetyl = Nc1ncnc2c1ncn2CC(=O)*

What was measured:
proteinase K [1] = target: T1, proteinase K (Parengyodontium album, UniProt P06873); experiment: biostability: incubation with proteinase K; format: in vitro ADME; conditions: 24 h, 37 °C
T1 construct: purchased Sigma
T1 sequence (P06873 106-384): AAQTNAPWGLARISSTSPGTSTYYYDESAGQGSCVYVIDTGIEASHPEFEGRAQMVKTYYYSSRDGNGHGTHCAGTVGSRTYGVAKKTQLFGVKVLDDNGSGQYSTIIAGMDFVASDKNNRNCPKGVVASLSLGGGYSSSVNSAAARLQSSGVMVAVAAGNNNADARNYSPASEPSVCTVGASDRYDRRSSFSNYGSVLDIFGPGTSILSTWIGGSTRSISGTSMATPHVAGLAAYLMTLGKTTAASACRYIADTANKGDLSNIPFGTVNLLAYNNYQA
Procedure: The existence of proteolytic enzymes in organism limits the applications of peptide-based biomaterials in vivo. […] When we changed the peptide sequence to EPTV, only 15% of 3 left.
Figure 3 Compounds remained after incubating with proteinase K (3.2 U/mL) for 24 h at 37 °C. (A) Each conjugate 1–8 is at the concentration of 0.2 mg/mL in HEPES buffer (pH 7.4). (B) Mixture of 1 + 8, 5 + 8, or 7 + 8 is in PBS buffer ([1] = [5] = [8] = 8.3 mM, pH 6.2). TEXT PRINTED IN THE PICTURE: (A) 4: Comp. remained %: Un-detectable | (A) 8: Comp. remained %: Un-detectable | (B) 8: Comp. remained %: Un-detectable (Mixtures: 7+8)
Starting materials and reagents were purchased from GL Biochem (Shanghai) Ltd. and Fisher Scientific without further purification unless otherwise noted. Proteinase K was purchased from Sigma (>800 unit/mL). The HeLa cell line (CCL-2) and the PC12 (CRL-1721.1) cell line were purchased from the American Type Culture Collection. All of the media were purchased from Invitrogen.

proteinase K [2] = target: T1, proteinase K; conditions: peptide sequence alone; cited from earlier work
Source text: This article reports the synthesis of a new class of conjugates containing a nucleobase, a peptidic epitope, and a saccharide and the evalution of their gelation, biostability, and cell compatibility. […] All the conjugates themselves (1–8) display excellent solubility in water without forming hydrogels. However, a mixture of 5 and 8 self-assembles to form nanofibers and results in a supramolecular hydrogel. The pr ...

Compound: CC[C@H](C)[C@H](NC(=O)[C@H](CC(N)=O)NC(=O)[C@H](Cc1ccccc1)NC(=O)CNC(=O)[C@H](CC(C)C)NC(=O)Cn1cnc2c(N)ncnc21)C(=O)O [compound 8] (Adenin9ylacetyl-LGFNI-OH)
- 8 remained after incubating the mixture 1 + 8 with proteinase K (proteinase K [1]; mixture 1 + 8, each 8.3 mM in PBS buffer pH 6.2, proteinase K 3.2 U/mL): about 3%
- 8 remained after incubating the mixture 5 + 8 (hydrogel) with proteinase K (proteinase K [1]; mixture 5 + 8, each 8.3 mM in PBS buffer pH 6.2, proteinase K 3.2 U/mL): about 50%
- 8 remained after incubating the mixture 7 + 8 with proteinase K (proteinase K [1]; mixture 7 + 8 in PBS buffer pH 6.2, same condition as 5 + 8, proteinase K 3.2 U/mL): Un-detectable

Compound: LGFNI
- proteolytic stability of the peptidic epitope itself (proteinase K [2]): susceptible to proteolysis

Compound: TTPV
- proteolytic stability of the peptidic epitope itself (proteinase K [2]): proteolytic resistant
